According to publication PMC8805605, “Discovery of Dimeric Arylsulfonamides as Potent ADAM8 Inhibitors” (ACS Medicinal Chemistry Letters, 2021):

Experiments:
Type in all cases: biochemical
MMP-1 = molecular target: T1, MMP-1 (Homo sapiens, UniProt P03956); assay: MMP-1 fluorometric inhibition assay; conditions: mean of three independent experiments in duplicate, read-out: In vitro inhibitory activity IC50 on MMP-1
T1 construct: purchased Calbiochem (Merck-Millipore)
T1 sequence (P03956 100-469): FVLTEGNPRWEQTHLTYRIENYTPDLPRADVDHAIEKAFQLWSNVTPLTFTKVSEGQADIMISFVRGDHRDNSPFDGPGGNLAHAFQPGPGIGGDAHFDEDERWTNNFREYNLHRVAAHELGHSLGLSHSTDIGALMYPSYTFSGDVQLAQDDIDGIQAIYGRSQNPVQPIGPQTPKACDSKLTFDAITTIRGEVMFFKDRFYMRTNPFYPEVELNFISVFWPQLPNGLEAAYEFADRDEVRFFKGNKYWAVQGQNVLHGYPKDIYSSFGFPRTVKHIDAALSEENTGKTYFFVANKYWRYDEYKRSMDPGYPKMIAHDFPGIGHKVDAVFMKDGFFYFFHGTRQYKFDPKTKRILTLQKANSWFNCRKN
Experimental: (§1) The newly synthesized bivalent derivatives 1–3 were then tested in vitro on human recombinant ADAM8 in comparison with JG26 by a fluorometric assay. The inhibitory activity against a panel of MMPs and ADAM10/17 was determined as well to assess their selectivity profile. […]
(§2) VI. Biological Activity on Isolated Enzymes
(§3) MMP and ADAM10 inhibition assays.
(§4) Recombinant human MMP-14 catalytic domain was a kind gift of Prof. Gillian Murphy (Department of […]
(§5) Oncology, University of Cambridge, UK). Pro-MMP-1, pro-MMP-2, and pro-MMP-9, were purchased […]
(§6) from Calbiochem (Merck-Millipore). Pro-MMP-12 and ADAM10 were purchased from R&D Systems.
(§7) Proenzymes were activated immediately prior to use with p-aminophenylmercuric acetate (APMA 2 […]
(§8) mM for 1 h at 37°C for MMP-2 and MMP-1, 1 mM for 1 h at 37°C for MMP-9). Pro-MMP-12 was […]
(§9) auto activated by incubating in the fluorometric assay buffer (FAB: Tris 50 mM, pH = 7.5, NaCl 150 […]
(§10) mM, CaCl2 10 mM, Brij 35 0.05% and DMSO 1%) for 30 h at 37°C. For assay measurements, each […]
(§11) inhibitor stock solution (DMSO, 10 mM) was further diluted in FAB at seven different concentrations.
(§12) Activated enzyme (final concentration 0.56 nM for MMP-2, 1.3 nM for MMP-9, 1.0 nM for MMP- […]
(§13) 14cd, 2.0 nM for MMP-1, 2.3 nM for MMP-12 and 20 nM for ADAM10) and inhibitor solutions were […]
(§14) incubated in the assay buffer for 3 h at 25 °C. ADAM10 was incubated for 1 h at 37°C in a different […]
(§15) buffer at pH 9 (Tris 25 mM, ZnCl2 25 µM, Brij-35 0.005 %). After the addition of 200 µM solution of […]
(§16) the fluorogenic substrate Mca-Lys-Pro-Leu-Gly-Leu-Dap(Dnp)-Ala-Arg-NH2 (Bachem) for all the […]
(§17) enzymes in DMSO (final concentration 2 µM for all enzymes, 10 µM for ADAM10), the hydrolysis […]
(§18) was monitored every 10 sec. for 15 min. recording the increase in fluorescence (λ ex = 325 nm, λ em = […]
(§19) 400 nm) using a Molecular Devices SpectraMax Gemini XPS plate reader. The assays were performed […]
(§20) in triplicate in a total volume of 200 μL per well in 96-well microtitre plates (Corning, black, NBS).
(§21) Control wells lack inhibitor. The MMP inhibition activity was expressed in relative fluorescent units […]
(§22) (RFU). Percent of inhibition was calculated from control reactions without the inhibitor. IC50 was determined using the formula: v i/v o = 1/(1 + [I]/ IC50), where v i is the initial velocity of substrate cleavage in the presence of the inhibitor at concentration [I] and v o is the initial velocity in the absence of the inhibitor. Results were analyzed using SoftMax Pro software (version 5.4.3, Molecular Devices, Sunnyvale, CA) and Prism Software version 5.0 (GraphPad Software, Inc., La Jolla, CA, USA).
ADAM8 and ADAM17 inhibition assays […]

MMP-12 = molecular target: T2, MMP-12 (Homo sapiens, UniProt P39900); assay: MMP-12 fluorometric inhibition assay; conditions: mean of three independent experiments in duplicate, read-out: In vitro inhibitory activity IC50 on MMP-12
T2 construct: purchased R&D Systems
T2 sequence (P39900 106-470): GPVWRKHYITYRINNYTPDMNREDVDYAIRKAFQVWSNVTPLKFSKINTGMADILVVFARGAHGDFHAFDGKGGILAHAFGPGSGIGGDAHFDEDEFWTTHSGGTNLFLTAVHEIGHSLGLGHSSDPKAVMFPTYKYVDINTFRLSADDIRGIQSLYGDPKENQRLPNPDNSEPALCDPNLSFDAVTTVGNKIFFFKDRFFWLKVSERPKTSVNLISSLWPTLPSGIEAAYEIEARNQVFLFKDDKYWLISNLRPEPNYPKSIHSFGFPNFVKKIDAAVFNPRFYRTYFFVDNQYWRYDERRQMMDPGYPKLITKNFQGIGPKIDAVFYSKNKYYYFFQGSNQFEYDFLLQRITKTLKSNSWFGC
Experimental: as §1, §2, §3, §4, §5, §6, §7, §8, §9, §10, §11, §12, §13, §14, §18
400 nm) using a Molecular Devices SpectraMax Gemini XPS plate reader. […]
as §22, with “USA). […]” for “USA).”

[1] = molecular target: T3, Recombinant human MMP-14 catalytic domain (Homo sapiens, UniProt P50281); assay: MMP-14 fluorometric inhibition assay; conditions: mean of three independent experiments in duplicate, read-out: In vitro inhibitory activity IC50 on MMP-14
T3 construct: Recombinant human MMP-14 catalytic domain was a kind gift of Prof; Gillian Murphy; kind gift of Prof; Gillian Murphy (Department of Oncology, University of Cambridge, UK)
Experimental: as §1, §2, §3, §4, §5, §6, §7, §8, §9, §10, §11, §12, §13, §14, §15, §16, §17, §18, §19, §20, §21
as §22, with “USA). […]” for “USA).”

Row | Compound | IC50 (MMP-1) [µM] | IC50 (MMP-12) [µM] | IC50 [1] [µM]
1 | O=C(CCCNC(=O)c1cccc(C(=O)NCCCC(=O)NCCC[C@@H](NS(=O)(=O)c2ccc(OCc3cc(Br)cc(Br)c3)cc2)C(=O)NO)c1)NCCC[C@@H](NS(=O)(=O)c1ccc(OCc2cc(Br)cc(Br)c2)cc1)C(=O)NO [Compound 1] | 415 | 0.242 | 57
2 | O=C(NCCC[C@@H](NS(=O)(=O)c1ccc(OCc2cc(Br)cc(Br)c2)cc1)C(=O)NO)c1cccc(C(=O)NCCC[C@@H](NS(=O)(=O)c2ccc(OCc3cc(Br)cc(Br)c3)cc2)C(=O)NO)c1 [Compound 2] | > 200 | 0.041 | 50
3 | O=C(NCCC[C@@H](NS(=O)(=O)c1ccc(OCc2cc(Br)cc(Br)c2)cc1)C(=O)NO)NCCC[C@@H](NS(=O)(=O)c1ccc(OCc2cc(Br)cc(Br)c2)cc1)C(=O)NO [Compound 3] | 348 | – | 234
4 | NC(=O)NCCC[C@@H](NS(=O)(=O)c1ccc(OCc2cc(Br)cc(Br)c2)cc1)C(=O)NO [JG26, reference compound] | > 500 | 0.0094 | 19.5
